# Results as given in patent US11117915B2, “Antibacterial aminoglycoside analogs” (Cipla USA, Inc., priority 2007, dated 2021).
# Like-named read-outs stand apart in the source and are kept apart here.
# Tests used:
# [1] = test system: P. aeruginosa ATCC 27853; test: MIC assay, CLSI broth microdilution, P. aeruginosa ATCC 27853 (APAE001); format: cell-based; details: Pseudomonas aeruginosa, read-out: MIC APAE001
# In short: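 CLSI M7-A7 broth microdilution; 2-fold serial dilutions in Mueller Hinton Broth, 1:1 with inoculum; final 5×10^5 CFU/mL; 35° C., 20 h, ambient air. QC strains E. coli ATCC 25922, P. aeruginosa ATCC 27853, S. aureus ATCC 29213.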
# [2] = test system: E. coli ATCC 25922; test: MIC assay, CLSI broth microdilution, E. coli ATCC 25922 (AECO001); format: cell-based; details: for MIC: Escherichia coli, read-out: MIC AECO001; for MIC AECO001: Table 3, E. coli ATCC25922
# In short: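 CLSI broth microdilution (M7-A7): two-fold compound dilutions in Mueller Hinton Broth, inoculum 5×10^5 CFU/mL final. Plates incubated 20 hours at 35° C. in ambient air; MIC read as lowest inhibitory concentration.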
# [3] = APAE001 is ATCC27853, 35° C., 20 hours
# [4] = AECO001 is ATCC25922, 35° C., 20 hours
Compound,"MIC ([1]; ATCC27853, 20 h) [µg/mL]","MIC ([2]; ATCC25922, 20 h) [µg/mL]","MIC [1, 3] [µg/mL]","MIC [2, 4] [µg/mL]",MIC AECO001 [2] [µg/mL]
CN[C@@H]1[C@@H](O)[C@@H](O[C@@H]2[C@@H](O)[C@H](O[C@H]3OC(CNCCO)=CC[C@H]3N)[C@@H](N)C[C@H]2NC(=O)C2(O)CNC2)OC[C@]1(C)O [Example 37],1 to 16,< 1,–,–,–
"CN[C@@H]1[C@@H](O)[C@@H](O[C@@H]2[C@@H](O)[C@H](O[C@H]3OC(CN)=CC[C@H]3NCC(O)CN)[C@@H](N)C[C@H]2NC(=O)[C@@H](O)CCN)OC[C@]1(C)O (stereo partly drawn) [Example 101, 2′-(2-Hydroxy-3-amino-propyl)-1-(4-amino-2(S)-hydroxy-butyryl)-sisomicin]",1 to 16,< 1,–,–,–
"CN[C@@H]1[C@@H](O)[C@@H](O[C@@H]2[C@@H](O)[C@H](O[C@H]3OC(CNCCO)=CC[C@H]3N)[C@@H](N)C[C@H]2NC(=O)C(O)C2CNC2)OC[C@]1(C)O (stereo partly shown) [Example 75, 6′-(2-Hydroxy-ethyl)-1-(2-(azetidin-3-yl)-2-hydroxy-acetyl)-sisomicin]",> 16,1 to 16,–,–,–
"CN[C@@H]1[C@@H](O)[C@@H](O[C@@H]2[C@@H](O)[C@H](O[C@H]3OC(CNCCCCN)=CC[C@H]3N)[C@@H](N)C[C@H]2NC(=O)[C@@H](O)CCN)OC[C@]1(C)O [Example 43, 6′-(4-Amino-butyl)-1-(4-amino-2(S)-hydroxy-butyryl)-sisomicin]",< 1,< 1,–,–,–
CN[C@@H]1[C@@H](O)[C@@H](O[C@@H]2[C@@H](O)[C@H](O[C@H]3OC(CNCC4(O)CCNCC4)=CC[C@H]3N)[C@@H](N)C[C@H]2NC(=O)[C@@H](O)CCN)OC[C@]1(C)O [Example 31],1 to 16,1 to 16,–,–,–
"CN[C@@H]1[C@@H](O)[C@@H](O[C@@H]2[C@@H](O)[C@H](O[C@H]3OC(CNCCO)=CC[C@H]3N)[C@@H](N)C[C@H]2NC(=O)[C@H](O)CCN)OC[C@]1(C)O [Example 2, 6′-(2-Hydroxy-ethyl)-1-(4-amino-2(R)-hydroxy-butyryl)-sisomicin]",1 to 16,1 to 16,–,–,–
"CN[C@@H]1[C@@H](O)[C@@H](O[C@@H]2[C@@H](O)[C@H](O[C@H]3OC(CNC[C@H]4C[C@H](N)C4)=CC[C@H]3N)[C@@H](N)C[C@H]2NC(=O)C2(O)CCNC2)OC[C@]1(C)O (stereo partly drawn) [Example 78, 6′-(Methyl-trans-3-amino-cyclobutyl)-1-(3-hydroxy-pyrrolidin-3-yl-acetyl)-sisomicin]",1 to 16,< 1,–,–,–
"CN[C@@H]1[C@@H](O)[C@@H](O[C@@H]2[C@@H](O)[C@H](O[C@H]3OC(CN)=CC[C@H]3NCCO)[C@@H](N)C[C@H]2NC(=O)[C@@H](O)CCN)OC[C@]1(C)O [Example 98, 2′-(2-Hydroxy-ethyl)-1-(4-amino-2(S)-hydroxy-butyryl)-sisomicin]",1 to 16,1 to 16,–,–,–
"CN[C@@H]1[C@@H](O)[C@@H](O[C@@H]2[C@@H](O)[C@H](O[C@H]3OC(CNCC(O)CN)=CC[C@H]3N)[C@@H](N)C[C@H]2NC(=O)C(O)C2CNC2)OC[C@]1(C)O (stereo partly shown) [Example 82, 6′-(2-Hydroxy-3-amino-propyl)-1-(2-(azetidin-3-yl)-2-hydroxy-acetyl)-sisomicin]",> 16,1 to 16,–,–,–
"CN[C@@H]1[C@@H](O)[C@@H](O[C@@H]2[C@@H](O)[C@H](O[C@H]3OC(CN)=CC[C@H]3NCCCCN)[C@@H](N)C[C@H]2NC(=O)[C@@H](O)CCN)OC[C@]1(C)O [Example 102, 2′-(4-Amino-butyl)-1-(4-amino-2(S)-hydroxy-butyryl)-sisomicin]",1 to 16,< 1,–,–,–
"CN[C@@H]1[C@@H](O)[C@@H](O[C@@H]2[C@@H](O)[C@H](O[C@H]3OC(CN)=CC[C@H]3NC(=O)CC3CNCCO3)[C@@H](N)C[C@H]2NC(=O)[C@@H](O)CCN)OC[C@]1(C)O (stereo partly drawn) [Example 92, 2′-(Morpholin-2-yl-acetyl)-1-(4-amino-2(S)-hydroxy-butyryl)-sisomicin]",> 16,< 1,–,–,–
"CN[C@@H]1[C@@H](O)[C@@H](O[C@@H]2[C@@H](O)[C@H](O[C@H]3OC(CNC(=O)C(O)CN)=CC[C@H]3N)[C@@H](N)C[C@H]2NC(=O)[C@@H](O)CN)OC[C@]1(C)O (stereo partly drawn) [Example 20, 6′-(3-Amino-2-hydroxy-propionyl)-1-(3-amino-2(S)-hydroxy-propionyl)-sisomicin]",> 16,> 16,–,–,–
"CN[C@@H]1[C@@H](O)[C@@H](O[C@@H]2[C@@H](O)[C@H](O[C@H]3OC(CNCCCO)=CC[C@H]3N)[C@@H](N)C[C@H]2NC(=O)[C@@H](O)CN)OC[C@]1(C)O [Example 54, 6′-(3-Propanol)-1-(3-amino-2(S)-hydroxy-propionyl)-sisomicin]",1 to 16,< 1,–,–,–
CNCC1=CC[C@@H](N)[C@@H](O[C@H]2[C@H](O)[C@@H](O[C@H]3OC[C@](C)(O)[C@H](NC)[C@H]3O)[C@H](NC(=O)C3(O)CNC3)C[C@@H]2N)O1 [Example 61],–,–,1 to 16,< 1,1
"CN[C@@H]1[C@@H](O)[C@@H](O[C@@H]2[C@@H](O)[C@H](O[C@H]3OC(CNCC(O)CCCN)=CC[C@H]3N)[C@@H](N)C[C@H]2NC(=O)[C@@H](O)CCN)OC[C@]1(C)O (stereo partly drawn) [Example 32, 6′-(2-Hydroxy-5-amino-pentyl)-1-(4-amino-2(S)-hydroxy-butyryl)-sisomicin]",1 to 16,< 1,–,–,–
"CN[C@@H]1[C@@H](O)[C@@H](O[C@@H]2[C@@H](O)[C@H](O[C@H]3OC(CNCCO)=CC[C@H]3N)[C@@H](N)C[C@H]2NC(=O)CO)OC[C@]1(C)O [Example 25, 6′-(2-Hydroxy-ethyl)-1-(2-hydroxy-acetyl)-sisomicin]",1 to 16,1 to 16,–,–,–
"CN[C@@H]1[C@@H](O)[C@@H](O[C@@H]2[C@@H](O)[C@H](O[C@H]3OC(CNCC4CCNCC4)=CC[C@H]3N)[C@@H](N)C[C@H]2NC(=O)[C@@H](O)CCN)OC[C@]1(C)O [Example 12, 6′-(Methyl-piperidin-4-yl)-1-(4-amino-2(S)-hydroxy-butyryl)-sisomicin]",–,–,1 to 16,1 to 16,1
CN[C@@H]1[C@@H](O)[C@@H](O[C@@H]2[C@@H](O)[C@H](O[C@H]3OC(CNC[C@H]4C[C@H](N)C4)=CC[C@H]3N)[C@@H](N)C[C@H]2NC(=O)C2(O)CC(N)C2)OC[C@]1(C)O (stereo partly shown) [Example 60],1 to 16,< 1,–,–,–
"CN[C@@H]1[C@@H](O)[C@@H](O[C@@H]2[C@@H](O)[C@H](O[C@H]3OC(CNCC(C)(C)N)=CC[C@H]3N)[C@@H](N)C[C@H]2NC(=O)[C@@H](O)CN)OC[C@]1(C)O [Example 55, 6′-(2-Methyl-2-amino-propyl)-1-(3-amino-2(S)-hydroxy-propionyl)-sisomicin]",> 16,1 to 16,–,–,–
"CN[C@@H]1[C@@H](O)[C@@H](O[C@@H]2[C@@H](O)[C@H](O[C@H]3OC(CNCC(O)CO)=CC[C@H]3N)[C@@H](N)C[C@H]2NC(=O)[C@H](O)CN)OC[C@]1(C)O (stereo partly drawn) [Example 10, 6′-(2-Hydroxy-propanol)-1-(3-amino-2(R)-hydroxy-propionyl)-sisomicin]",1 to 16,1 to 16,–,–,–
"CN[C@@H]1[C@@H](O)[C@@H](O[C@@H]2[C@@H](O)[C@H](O[C@H]3OC(CN)=CC[C@H]3NC[C@H]3C[C@H](N)C3)[C@@H](N)C[C@H]2NC(=O)[C@@H](O)CCN)OC[C@]1(C)O [Example 104, 2′-(Methyl-trans-3-amino-cyclobutyl)-1-(4-amino-2(S)-hydroxy-butyryl)-sisomicin]",1 to 16,< 1,–,–,–
"CN[C@@H]1[C@@H](O)[C@@H](O[C@@H]2[C@@H](O)[C@H](O[C@H]3OC(CNCC4(CN)CC4)=CC[C@H]3N)[C@@H](N)C[C@H]2NC(=O)[C@@H](O)CN)OC[C@]1(C)O [Example 66, 6′-(Methyl-1-aminomethyl-cyclopropyl)-1-(3-amino-2(S)-hydroxy-propionyl)-sisomicin]",1 to 16,< 1,–,–,–
"CN[C@@H]1[C@@H](O)[C@@H](O[C@@H]2[C@@H](O)[C@H](O[C@H]3OC(CNC[C@H]4C[C@H](O)CN4)=CC[C@H]3N)[C@@H](N)C[C@H]2NC(=O)[C@@H](O)CN)CC[C@]1(C)O [Example 53, 6′-(Methyl-4(S)-hydroxy-pyrrolidin-2(R)-yl)-1-(3-amino-2(S)-hydroxy-propionyl)-sisomicin]",> 16,1 to 16,–,–,–
"CN[C@@H]1[C@@H](O)[C@@H](O[C@@H]2[C@@H](O)[C@H](O[C@H]3OC(CNCC(O)CO)=CC[C@H]3N)[C@@H](N)C[C@H]2NC(=O)[C@@H](O)CCN)OC[C@]1(C)O (stereo partly drawn) [Example 19, 6′-(2-Hydroxy-propanol)-1-(4-amino-2(S)-hydroxy-butyryl)-sisomicin]",1 to 16,< 1,–,–,–
"CN[C@@H]1[C@@H](O)[C@@H](O[C@@H]2[C@@H](O)[C@H](O[C@H]3OC(CNCC(O)CO)=CC[C@H]3N)[C@@H](N)C[C@H]2NC(=O)CO)OC[C@]1(C)O (stereo partly shown) [Example 23, 6′-(2-Hydroxy-propanol)-1-(2-hydroxy-acetyl)-sisomicin]",> 16,> 16,–,–,–
